Key:
MAPK p38 phosphorylation = experiment: MAPK p38 Activation Assay (western blot), Panc-1; format: cell-based, human; details: at 10 μM, Panc-1 pancreatic cancer cell line; starred symbols = activation
Description: Protocol for MAPK p38 Activation Assay
This assay is referred to as the “MAPK p38 Activation Assay” throughout this application.
Cell lines: Human tumor-derived pancreatic cancer cell line Panc-1 (expressing KRas G12D mutant) was purchased from American Type Culture Collection and grown in complete DMEM-High Glucose medium, supplemented with penicillin (100 U/mL), streptomycin (100 μg/mL), and 10% heat-inactivated FBS at 37° C. in a humidified incubator with 5% CO2.
Method 1: Cells were plated at 350000 cells/well density in a 12-well plate, allowed 3 hours to adhere to the plate, then starved in the appropriate medium in the presence of 0.5% FBS overnight. The small molecules to be tested were added to the cells in the final concentration of 10 μM in the presence of 0.3% DMSO for 6 hours incubation at 37° C. For IC50 value determination, serial dilutions of compounds were added to cells under the same conditions. Next, cells were stimulated with 1.5 ng/ml EGF for 15 minutes then cells were lysed with lysis buffer containing 1% Triton X-100, EDTA, and Halt™ Protease & Phosphatase Inhibitor Cocktail (Thermo Scientific). Protein concentration was assessed by BCA protein assay (Thermo Scientific). Phosphorylation level of MAPK p38 was determined by western blot.
Method 2: Cells were plated at 350000 cells/well density in a 12-well plate in 10% FBS. The next day small molecules to be tested were added to the cells in the final concentration of 10 μM in the presence of 0.3% DMSO for 6 hours incubation at 37° C. For IC50 value determination, serial dilutions of compounds were added to cells under the same conditions. Next, cells were lysed with lysis buffer containing 1% Triton X-100, EDTA, and Halt™ Protease & Phosphatase Inhibitor Cocktail (Thermo Scientific). Protein concentration was assessed by BCA protein assay (Thermo Scientific). Phosphorylation level of MAPK p38 was determined by western blot.
(§1) Western blot protocol: Equal amounts of protein (15-50 μg) were separated by SDS-PAGE and transferred to nitrocellulose membranes (Invitrogen by Thermo Fisher Scientific). The membrane was stained with Ponceau S Stain (Boston BioProducts) to verify uniform protein loading. Membranes were blocked with 10% milk and phosphorylation levels of MAPK p38 were assessed by incubating overnight at 4° C. with the following antibody: Phospho-p38 MAPK (Thr180/Tyr182), from Cell Signaling Technology. Then the membranes were incubated with HRP-conjugated secondary antibody (Jackson Immunoresearch, West Grove, PA). Bands were incubated in Amersham ECL Prime Western Blotting Detection Reagent (GE Healthcare) and visualized using the ChemiDoc MP imaging system (Bio-Rad).

active/cleaved caspase 3 = experiment: Cell-based caspase activation assay (western blot); set-up: species or system human
Description: (§2) Biological Example 4: Puma Expression and Caspases Activation Assay
(§3) Protocols for Cell-Based Puma Expression and Caspase Activation Assays
(§4) Cell lines: All human tumor-derived cancer cell lines were purchased from American Type Culture Collection. Human tumor-derived cancer cell lines Panc-1 (expressing KRas G12D mutant), MiaPaca-2 (expressing KRas G12C mutant), A549 (expressing KRas G12S mutant), and A375 (expressing wild type KRas) were grown in complete DMEM-High Glucose medium and NCI-H1975 (expressing wild type KRas), MM.1R (expressing wild type KRas) and IM.9 (expressing wild type KRas) were grown in RPMI1640 medium. Human tumor-derived cancer cell line BT-549 (expressing wild type KRas) was grown in RPMI1640 medium with 11.8U insulin. All mediums were supplemented with penicillin (100 U/mL), streptomycin (100 μg/mL), and 10% heat-inactivated FBS at 37° C. in a humidified incubator with 5% CO2.
(§5) Method: Cells were plated at 300,000 to 800,000 cells/well density in a 6-well plate in the presence of 10% FBS. The next day small molecules to be tested were added to the cells in the final concentration of 3 μM in the presence of 0.3% DMSO for 48 hours incubation at 37° C. For IC50 value determination, serial dilutions of compounds were added to cells under the same conditions. Following 48 hours of incubation cells were lysed with lysis buffer containing 1% Triton X-100, EDTA, and Halt™ Protease & Phosphatase Inhibitor Cocktail (Thermo Scientific). Protein concentration was assessed by BCA protein assay (Thermo Scientific). Increase expression of PUMA and active/cleaved forms of caspase 3, caspase 6 and caspase 9 were detected by western blot.
as §1, with “expression” for “phosphorylation”, “PUMA was” for “MAPK p38 were”, “antibody PUMA (D30C10)” for “following antibody: Phospho-p38 MAPK (Thr180/Tyr182),”, “Technology (#12450) and active/cleaved forms of caspase 3, caspase 6 and caspase 9 by incubating overnight at 4° C. with the following antibodies: cleaved caspase-3 (Asp175) (5A1E), cleaved caspase-6 (Asp162) and cleaved caspase-9 (Asp330) (D2D4) (all antibodies from Cell Signaling Technology).” for “Technology.”

active/cleaved caspase 6 = experiment: Cell-based caspase activation assay (western blot); set-up: species or system human
Description: as §2, §3, §4, §5
as §1, with “expression” for “phosphorylation”, “PUMA was” for “MAPK p38 were”, “antibody PUMA (D30C10)” for “following antibody: Phospho-p38 MAPK (Thr180/Tyr182),”, “Technology (#12450) and active/cleaved forms of caspase 3, caspase 6 and caspase 9 by incubating overnight at 4° C. with the following antibodies: cleaved caspase-3 (Asp175) (5A1E), cleaved caspase-6 (Asp162) and cleaved caspase-9 (Asp330) (D2D4) (all antibodies from Cell Signaling Technology).” for “Technology.”

active/cleaved caspase 9 = experiment: Cell-based caspase activation assay (western blot); set-up: species or system human
Description: as §2, §3, §4, §5
as §1, with “expression” for “phosphorylation”, “PUMA was” for “MAPK p38 were”, “antibody PUMA (D30C10)” for “following antibody: Phospho-p38 MAPK (Thr180/Tyr182),”, “Technology (#12450) and active/cleaved forms of caspase 3, caspase 6 and caspase 9 by incubating overnight at 4° C. with the following antibodies: cleaved caspase-3 (Asp175) (5A1E), cleaved caspase-6 (Asp162) and cleaved caspase-9 (Asp330) (D2D4) (all antibodies from Cell Signaling Technology).” for “Technology.”

PUMA expression = experiment: Cell-based Puma expression assay (western blot); set-up: species or system human
Description: as §2, §3, §4, §5
as §1, with “expression” for “phosphorylation”, “PUMA was” for “MAPK p38 were”, “antibody PUMA (D30C10)” for “following antibody: Phospho-p38 MAPK (Thr180/Tyr182),”, “Technology (#12450) and active/cleaved forms of caspase 3, caspase 6 and caspase 9 by incubating overnight at 4° C. with the following antibodies: cleaved caspase-3 (Asp175) (5A1E), cleaved caspase-6 (Asp162) and cleaved caspase-9 (Asp330) (D2D4) (all antibodies from Cell Signaling Technology).” for “Technology.”

SMILES	% inh of MAPK p38 in Panc-1 (MAPK p38 phosphorylation)	Caspase 3 activation (active/cleaved caspase 3; A375, after 48 hours)	Caspase 3 activation (active/cleaved caspase 3; BT-549, after 48 hours)	Caspase 3 activation (active/cleaved caspase 3; MiaPaca2, after 48 hours)	Caspase 6 activation (active/cleaved caspase 6; A375, after 48 hours)	Caspase 6 activation (active/cleaved caspase 6; BT-549, after 48 hours)	Caspase 6 activation (active/cleaved caspase 6; MiaPaca2, after 48 hours)	Caspase 9 activation (active/cleaved caspase 9; A375, after 48 hours)	Caspase 9 activation (active/cleaved caspase 9; BT-549, after 48 hours)	Caspase 9 activation (active/cleaved caspase 9; MiaPaca2, after 48 hours)	Increased PUMA expression (PUMA expression; MiaPaca2, after 48 hours)	Caspase 3 activation (active/cleaved caspase 3; A549, after 48 hours)	Caspase 6 activation (active/cleaved caspase 6; A549, after 48 hours)	Caspase 9 activation (active/cleaved caspase 9; A549, after 48 hours)	Increased PUMA expression (PUMA expression; A549, after 48 hours)	further results
Cc1c(-c2ccn(C(C)C)n2)cn2nc(-c3nccn3C)nc(Nc3nccn3C)c12 [Compound 93, 6-(1-Isopropyl-1H-pyrazol-3-yl)-5-methyl-N,2-bis(1-methyl-1H-imidazol-2-yl)pyrrolo[2,1-f][1,2,4]triazin-4-amine]	H* (H* ≥ 100% activation)	–	–	–	–	–	–	–	–	–	–	–	–	–	–	–
Cc1c(-c2ccn(C(C)C)n2)cn2nc(-c3ccccn3)nc(O)c12 [Compound 8, 6-(1-Isopropyl-1H-pyrazol-3-yl)-5-methyl-2-(pyridin-2-yl)pyrrolo[2,1-f][1,2,4]triazin-4-ol]	H* (H* ≥ 100% activation)	–	–	–	–	–	–	–	–	–	–	–	–	–	–	–
Cc1c(-c2ccn(C)n2)cn2nc(-c3nccn3C)nc(Nc3cc4n(n3)CCO4)c12 [Compound 124, N-(5-Methyl-2-(1-methyl-1H-imidazol-2-yl)-6-(1-methyl-1H-pyrazol-3-yl)pyrrolo[2,1-f][1,2,4]triazin-4-yl)-2,3-dihydropyrazolo[5,1-b]oxazol-6-amine]	–	yes	yes	yes	yes	yes	yes	yes	yes	yes	yes	–	–	–	–	Caspase 3 activation (active/cleaved caspase 3; HCC1806, after 48 hours): yes; Caspase 3 activation (active/cleaved caspase 3; NCI-H358, after 48 hours): yes; Caspase 6 activation (active/cleaved caspase 6; HCC1806, after 48 hours): yes; Caspase 6 activation (active/cleaved caspase 6; NCI-H358, after 48 hours): yes; Increased PUMA expression (PUMA expression; HCC1806, after 48 hours): yes; Increased PUMA expression (PUMA expression; NCI-H358, after 48 hours): yes
CO[C@H]1CC[C@@H](Nc2nc(-c3ccccn3)nn3cc(-c4ccn(C(C)C)n4)c(C)c23)C1 (racemic) [Compound 9, rac 6-(1-Isopropyl-1H-pyrazol-3-yl)-N-((1R,3S)-3-methoxycyclopentyl)-5-methyl-2-(pyridin-2-yl)pyrrolo[2,1-f][1,2,4]triazin-4-amine]	G* (G* = 75-99% activation)	–	–	–	–	–	–	–	–	–	–	–	–	–	–	–
COc1cc(Nc2nc(-c3nccn3C)nn3cc(-c4ccn(C(C)C)n4)c(C)c23)ncn1 [Compound 6, 6-(1-Isopropyl-1H-pyrazol-3-yl)-N-(6-methoxypyrimidin-4-yl)-5-methyl-2-(1-methyl-1H-imidazol-2-yl)pyrrolo[2,1-f][1,2,4]triazin-4-amine]	E* (E* = 1-30% activation)	yes	yes	yes	yes	yes	yes	yes	yes	yes	yes	yes	yes	yes	yes	Caspase 3 activation (active/cleaved caspase 3; Panc-1, after 48 hours): yes; Caspase 6 activation (active/cleaved caspase 6; Panc-1, after 48 hours): yes; Increased PUMA expression (PUMA expression; BT-549, after 48 hours): yes
COc1ccnc(Nc2nc(-c3nccn3C)nn3cc(-c4ccn(C)n4)c(C)c23)c1 [Compound 102, N-(4-Methoxypyridin-2-yl)-5-methyl-2-(1-methyl-1H-imidazol-2-yl)-6-(1-methyl-1H-pyrazol-3-yl)pyrrolo[2,1-f][1,2,4]triazin-4-amine]	–	yes	–	yes	yes	–	yes	yes	–	yes	yes	yes	yes	yes	yes	Caspase 3 activation (active/cleaved caspase 3; IM.9, after 48 hours): yes; Caspase 3 activation (active/cleaved caspase 3; MM.1R, after 48 hours): yes; Caspase 3 activation (active/cleaved caspase 3; NCI-H1975, after 48 hours): yes; Caspase 6 activation (active/cleaved caspase 6; IM.9, after 48 hours): yes; Caspase 6 activation (active/cleaved caspase 6; MM.1R, after 48 hours): yes; Caspase 6 activation (active/cleaved caspase 6; NCI-H1975, after 48 hours): yes; Caspase 9 activation (active/cleaved caspase 9; IM.9, after 48 hours): yes; Caspase 9 activation (active/cleaved caspase 9; MM.1R, after 48 hours): yes; Caspase 9 activation (active/cleaved caspase 9; NCI-H1975, after 48 hours): yes
